Data taken from US5618675A, “Methods and compositions for detecting lipopolysaccharides using CAP18 fragments” (Panorama Research, Inc., dated 1997).
pIC50: −log10 of the molar value. Where two headings read alike, the source gives them in different places.

Tests used:
RAW 264.7 cells = type: cell-based, murine; settings: for Inhibition of LPS-induced RNI-IC50: LPS-induced (2.5 ng/ml LPS in FIG. 6B); for concentrations at which peptides are active in the bioassay: day-to-day variation
Procedure: (§1) From the sequence of the CAP18 cDNA, it was apparent that the putative N-terminal peptide of CAP18 was in fact an internal fragment of the CAP18 protein. We therefore tried to reconfirm the original protein sequence. Neutrophil-derived heparin bound cationic proteins were prepared as described above and applied to a C18 reverse phase HPLC (FIG. 1). We sequenced the major peaks. Peaks at fractions 14.5 and 15.2 correspond to defensins MCP1 and MCP2 (Territo et al. (1989) J. Clin. Invest. 84:2017-2019), respectively. Fraction 25.8 is macrophage related protein 14 (MRP14) (Odink et al. (1987) Nature 330:80-82). The fraction at 20.3 minutes corresponds to a fragment of CAP18 of approximately 4-5 kD. […] The murine macrophage cell line RAW 264.7 (obtained from ATCC) and thioglycolate-elicited murine peritoneal exudate cells are used to produce RNI. Cells are cultured at 1×10^6 /ml. in RPMI-1640 +2.5% FCS in 24 well plates in the presence or absence of different concentrations of LPS or murine rlFNγ. After 24 hr. incubation at 37° C. the cell free supernatant is collected and tested for the presence of RNI. Accumulation of nitrite in the medium is measured by a colorimetric assay based on the Griess reaction (Green et al. (1982) Anal. Biochem. 126:11) using sodium nitrite as standards. Sample (50 μl) is mixed with 50 μl of Griess reagent (1% sulfanilamide, 0.1% naphthalene diamine dihydrochloride, 2.5% H3 PO4) and after 10 min. at room temperature absorbance is read at 570 nm.

Human plasma = experiment: Prothrombin time (PT); type: biochemical; settings: for inhibition of prothrombin time (PT), words: FIG. 14A
Procedure: Clotting method: Human plasma (Ortho plasma control, Ortho Diagnostic Co.). ATPP reagent (Organotechnika, Tokyo, Japan). Standard tissue factor, rabbit brain thromboplastin (Simplastin, ONO Pharmaceutical, Tokyo, Japan). Purified human factor VII, factor X, factor Xa (Sigma Chemical Co., St. Louis, Mo.). Russell Viper venom (RVV) and Echis carinatus venom (ECV, Sigma Co.).
Instrumentation: Clotting assays were carried out using a Fibrometer (BioQuest Division, Becton Dickinson; Cokeysville, […]., USA).
Human plasma (100 μl) was incubated with 100 μl of each peptide at 37° C. for 3 min., then 100 μl of tissue factor (250 μg/ml) CaCl2 was added and clotting time was measured.

prothrombin (factor II) = prothrombin (factor II) (Homo sapiens, UniProt P00734); experiment: Prothrombin activation by Echis carinatus venom (ECV); type: biochemical; settings: FIG. 17A
Procedure: Synthetic chromogenic substrate method: Substrate for factor Xa, S2222 (Kabi, Bz-Ile-Glu-Arg-pNA) was used. Substrate for factor II (prothrombin), Boc-Val-Pro-Arg-pNA (Sigma Chemical Co.) was used.
A reaction mixture of prothrombin (factor II) (0.1 unit/ml, 200 μl), ECV (1 unit/ml, 200 μl), various concentration of peptide (70 μl), 50 μl of 25 mM-CaCl2 and 180 μl of Tris buffer was incubated at 37° C. for 10 min. To 300 μl of the reaction mixture, 60 μl of 4mM-thrombin substrate and 240 μl of buffer was added and further incubated for 15 min.

Salmonella typhimurium = experiment: Antibacterial CFU assay; settings: read-out: anti-bacterial IC50 (CFU); FIG. 6D
[1] = test system: methicillin-sensitive Staphylococcus aureus; experiment: Antibacterial CFU assay; settings: for pIC50: read-out: IC50, inhibition of CFU
[2] = test system: thioglycolate elected murine peritoneal exudate cells; experiment: RNI generation by thioglycolate-elicited peritoneal exudate cells; type: cell-based; settings: for RNI (reactive nitrogen intermediate): RNIP 50 nm
Procedure: as §1

human monocytes = experiment: TNF release from LPS and IFNγ stimulated monocytes; type: cell-based
ddY mice = experiment: Tissue factor lethality model; type: in vivo; settings: for Survival (%) / No. of Mice (dead/total) / Survival time: Tissue factor 1.0 mg/mouse IV; for Survival (%): control 0; for No. of Mice (dead/total): control 7/7; for Survival time: control 187 ± 70
Procedure: Reference tissue factor (Simplastin, 1 mg/mouse) was IV injected into ddY mice (male, 20-week-old, 38-45 g) incubated with or without peptide.
The anticoagulant activity of the RNIP peptides was studied in an acute animal model. Direct injection of tissue factor IV (Simplastin, 1 mg/mouse) produces acute intravascular coagulation and death within three minutes.
^a Tissue factor (Simplastin, 10 mg/ml was mixed with equal volume of
synthetic peptide 100 μg/ml or 50 μg/ml and 0.2 ml of the mixture
injected IV. ddY mice (20 weeks, 38-45 gm).

[3] = test system: E. coli 09:K39 K^- strain; experiment: Antibacterial CFU assay; settings: FIG. 6H
[4] = test system: E. coli 09:K39 K^+ strain; experiment: Antibacterial CFU assay; settings: FIG. 6H
E. coli = experiment: Antibacterial CFU assay; settings: read-out: IC50, inhibition of CFU; FIG. 6I

Q: What does the source list for “36-1: synthetic rabbit RNIP-derived fragment, amino acids 135-166 of SEQ ID NO:4 (GLRKRLRKFRNKIKEKLKKIGQKIQGLLPKLA)”?
A: activity in hemagglutination and inhibition of LPS-induced RNI (RAW 264.7 cells): active; Inhibition of LPS-induced RNI-IC50 (RAW 264.7 cells): 0.08 µg/mL; concentrations at which peptides are active in the bioassay (RAW 264.7 cells): 10 to 50 nM; IC50, Prothrombin time (Human plasma): 2.0 µg/mL; inhibition of prothrombin time (PT), words (Human plasma): inhibited; inhibition of Echis carinatus venom activation of purified factor II to IIa (prothrombin (factor II)): inhibited; pIC50 (Salmonella typhimurium): 6.55 to 6.66; IC50, inhibition of CFU [1]: 0.58 µg/mL; pIC50 [1]: 6.96

Q: Which “activity in hemagglutination and inhibition of LPS-induced RNI” value (RAW 264.7 cells) does the source give for “RNIP: reactive nitrogen inhibitory protein, amino acids 135-171 of SEQ ID NO:4 (rabbit CAP18 C-terminus); purified from granulocytes or synthetic (#197) (GLRKRLRKFRNKIKEKLKKIGQKIQGLLPKLAPRTDY)” here?
A: active

Q: What about the pIC50 (RAW 264.7 cells; 2.5 ng/ml LPS, FIG. 6B, read-out: 50% inhibitory concentration (IC50), LPS-induced RNI production) of the same substance?
A: ~7.52

Q: What about the “capacity to inhibit LPS-stimulated nitrogen radical release from macrophages” value (RAW 264.7 cells; HPLC-purified rabbit peptides, FIG. 5) of the same substance?
A: active

Q: And the “reactive nitrogen intermediates (RNI)” value (RAW 264.7 cells; LPS (2.5 ng/ml), RNIP (1:1), stimulus alone 27)?
A: 4 µM

Q: And the “reactive nitrogen intermediates (RNI)” value (RAW 264.7 cells; LPS (2.5 ng/ml), RNIP (1:10), stimulus alone 27)?
A: 16 µM

Q: And the “reactive nitrogen intermediates (RNI)” value (RAW 264.7 cells; LPS (2.5 ng/ml), RNIP (1:100), stimulus alone 27)?
A: 24 µM

Q: And the “Inhibition of LPS-induced RNI-IC50” value (RAW 264.7 cells)?
A: about 0.2 μg/ml

Q: And the “Inhibition of LPS-induced RNI-IC50” value (RAW 264.7 cells; listed as 197/RNIP)?
A: 0.2 µg/mL

Q: What about the “reactive nitrogen intermediates (RNI)” value (RAW 264.7 cells; Murine IFNγ (250 U), RNIP (1:1), stimulus alone 30) of the same substance?
A: 15 µM

Q: And the “reactive nitrogen intermediates (RNI)” value (RAW 264.7 cells; Murine IFNγ (250 U), RNIP (1:10), stimulus alone 30)?
A: 18 µM

Q: And the “reactive nitrogen intermediates (RNI)” value (RAW 264.7 cells; Murine IFNγ (250 U), RNIP (1:100), stimulus alone 30)?
A: 20 µM

Q: And the “concentrations at which peptides are active in the bioassay” value (RAW 264.7 cells)?
A: 10 to 50 nM

Q: What about the “RNI (reactive nitrogen intermediate)” value ([2]; IFN 500 U/ml, without RNIP 4.0 ± 0.8) of the same substance?
A: 1.1 µM

Q: And the “RNI (reactive nitrogen intermediate)” value ([2]; LPS + IFNγ 1 ng + 500 U/ml, without RNIP 26 ± 0.6)?
A: 14 ± 0.7 µM

Q: And the pIC50 ([2]; read-out: IC50 for inhibition of gamma interferon stimulated nitrogen radical release)?
A: > 7.30

Q: And the TNF (human monocytes; Human IFNγ (100 U), (1:1), stimulus alone 2.0)?
A: 0.27 ng/mL

Q: What about the TNF (human monocytes; Human IFNγ (100 U), (1:10), stimulus alone 2.0) of the same substance?
A: 0.35 ng/mL

Q: What about the TNF (human monocytes; Human IFNγ (100 U), (1:100), stimulus alone 2.0) of the same substance?
A: 0.35 ng/mL

Q: What about the TNF (human monocytes; LPS (10 ng/ml), (1:1), stimulus alone 1.0) of the same substance?
A: 0.12 ng/mL

Q: And the TNF (human monocytes; LPS (10 ng/ml), (1:10), stimulus alone 1.0)?
A: 0.34 ng/mL

Q: And the TNF (human monocytes; LPS (10 ng/ml), (1:100), stimulus alone 1.0)?
A: 0.23 ng/mL

Q: And the pIC50 (Human plasma)?
A: 6.52

Q: What about the “IC50, Prothrombin time” value (Human plasma) of the same substance?
A: 1.9 µg/mL

Q: And the “inhibition of prothrombin time (PT), words” value (Human plasma)?
A: inhibited

Q: And the “IC50, Echis carinatus venom activation of factor II to IIa” value (prothrombin (factor II))?
A: 9.4 µg/mL

Q: What about the “inhibition of Echis carinatus venom activation of purified factor II to IIa” value (prothrombin (factor II)) of the same substance?
A: inhibited

Q: And the pIC50 (prothrombin (factor II); read-out: IC50, Echis carinatus venom activation of factor II to IIa)?
A: 5.82

Q: And the “Survival (%)” value (ddY mice; Peptide #197 5 μg/mouse)?
A: 43%

Q: And the “No. of Mice (dead/total)” value (ddY mice; Peptide #197 5 μg/mouse)?
A: 4/7

Q: What about the “Survival time” value (ddY mice; Peptide #197 5 μg/mouse) of the same substance?
A: 228 ± 48 s

Q: What about the “Survival (%)” value (ddY mice; Peptide #197 10 μg/mouse, p < 0.05) of the same substance?
A: 57%

Q: And the “No. of Mice (dead/total)” value (ddY mice; Peptide #197 10 μg/mouse)?
A: 3/7

Q: What about the “Survival time” value (ddY mice; Peptide #197 10 μg/mouse) of the same substance?
A: 305 s

Q: What about the reduction of mortality (ddY mice; tissue factor IV 1 mg/mouse) of the same substance?
A: 57%

Q: What about the pIC50 (Salmonella typhimurium) of the same substance?
A: 6.55 to 6.66

Q: What about the “anti-bacterial IC50” value [3] of the same substance?
A: 0.68 µg/mL

Q: And the pIC50 ([3]; read-out: anti-bacterial IC50)?
A: 6.96

Q: What about the “anti-bacterial IC50” value [4] of the same substance?
A: 0.14 µg/mL

Q: What about the pIC50 ([4]; read-out: anti-bacterial IC50) of the same substance?
A: 7.70

Q: And the “IC50, inhibition of CFU” value [1]?
A: 0.94 µg/mL

Q: What about the pIC50 [1] of the same substance?
A: 6.82

Q: And the pIC50 (E. coli)?
A: 7.10
